The values that follow are results of earlier work, collected in patent US11839630B2, “CAR-T cells targeting IL-1RAP and their use” (ETABLISSEMENT FRANCAIS DU SANG, priority 2017, dated 2023).

In data set [1] the test system is CML. The following applies: cited from earlier work.
Data set [2] relates to CML. The conditions noted are these: cited from earlier work. This is another data set of the same source.

Turning to `Cc1ccc(NC(=O)c2ccc(CN3CCN(C)CC3)cc2)cc1Nc1nccc(-c2cccnc2)n1` [Imatinib], the “rate of molecular relapse after stopping TKI” value in data set [1] (n=100 patients with complete molecular response) was 61%. In addition, the “median time of molecular relapse” value in data set [1] (n=100 patients) is on record as 2.5 months. In data set [2] (42 of 69 patients, treatment of more than 2 years discontinued), the “patients relapsed after discontinuation” value is on record as 61%. Also, the “probability of persistent molecularly undetectable leukemia” value in data set [2] (at 12 months, 69 patients) is 41%.
